Values quoted from earlier work in patent US20240082136A1, “TOPICAL COMPOSITION” (LILIGER LTD., priority 2021, published 2024).

Key:
[1] = tested on: stratum corneum / dry skin; conditions: topical treatment
cutaneous vasodilation = conditions: in vivo

| Compound | Clinical symptoms of dry skin [1] | Skin moisture [1] | Urea in the stratum corneum [1] | Cutaneous vasodilation (cutaneous vasodilation) |
| --- | --- | --- | --- | --- |
| Cl.N=C(N)NCCC[C@H](N)C(=O)O [arginine hydrochloride] | improvement | increase | significantly increase |  |
| botulinum toxin A |  |  |  | eliminates |
